# Source: US12692290B2, “Modulators of tight junction permeability” (The University of Bath, priority 2020, dated 2026)
# Where “and” joins values, the source holds several entries; their conditions need not be identical. Equal values may be shown once. Read-outs that look alike come from different tables or passages of the source. Where a SMILES comes first, the peptide text is derived from it. [ ]: non-standard residue; d: D form.
# How the values were obtained:
# Caco-2 monolayers [1] = test: TEER of Caco-2 monolayers after apical PIP peptide; format: cell-based, human; conditions: for TEER % of initial baseline at time of washout: 5 mM peptide for 180 min, Caco-2; for Effect on TEER compared to control (FIG. 1): 5 mM peptide, Caco-2 monolayer, one-way ANOVA with bonferroni post-test; for TEER reduced to % of baseline: 5 mM applied to apical surface of Caco-2 monolayers
# Description: An immortalized human intestinal epithelial cell line (Caco-2) was maintained in DMEM/F12 (Gibco, Paisley, UK) supplemented with 10% FBS, 2 mM L-glutamine (Gibco) 100 U/mL penicillin and 100 μg/mL streptomycin (Gibco). Caco-2 cells were seeded at a density of 7×10^4/well on Transwell™ (Corning, NY) polyester membrane filters (12 mm diameter, 0.4 μm pore size). Feeding with fresh media (Life Technologies, Paisley, UK) was carried out every second day. Caco-2 monolayers with trans-epithelial electrical resistance (TEER) >350 Ω·cm^2 were used for these studies; such TEER values as measured using fixed paddle electrodes and a voltohmeter (World Precision Instruments, UK), were typically achieved between days 15-18 following seeding on Transwell™ filters.
# Apical to basal flux of 10 mg/mL 4 kDa fluorescent dextran (Sigma) was performed to assess PIP peptide impact on paracellular permeability. Apical (200 μL) and basal (500 μL) compartment media were replaced with fresh HBSS and allowed to equilibrate for 30 min when TEER measurements were obtained to ensure monolayer integrity. After apical application of the fluorescent dextra the basal compartment volume was collected at set times (typically 0, 15, 30 60, 90, 120 and 180 min) and replaced with fresh HBSS each time. Apical and basal compartment fluorescence was determined using a Fluorostar Omega microplate reader (BMG Labtech, Ortenburg, Germany). After 3 h, the apical compartment fluorescent dextran/peptide solution was removed and replaced with PBS and TEER values were recorded for a further 30 min to monitor monolayer recovery. TEER values were calculated by subtracting blank filter readings and normalized as a percentage of the initial TEER value for that monolayer.
# [2] = system: myosin light chain (MLC) phosphorylation; test: Western blot, ratio of pMLC to total MLC in Caco-2 lysates; format: cell-based, human; conditions: 5 mM peptide, Caco-2 monolayers
# Description: (§1) Lysates of Caco-2 monolayers prepared using 200 μL RIPA buffer along with 10 μL protease and phosphatase inhibitors per well were placed in 1.5 mL Eppendorf tubes and centrifuged at 4000×g for 10 min with supernatants being removed and stored at −80° C. until separation using a 12% SDS-PAGE gel. Protein samples were mixed 1:1 with loading buffer and denatured by heating at 95° C. for 5 min with 20 μL being loaded for analysis. Separated proteins were transferred onto a nitrocellulose membrane at 30 V for 75 min. Membranes were blocked with 5% bovine serum albumin in TBS-T for 2 h prior to an overnight incubation at 4° C. with primary antibodies diluted in TBS-T. Membranes were thrice washed with TBS-T and then incubated with fluorescent-tagged secondary antibodies at room temperature for 2 h. Membranes were thrice washed with TBS-T and analysed using a Licor imaging system.
# occludin = test: Western blot for occludin in lysates of Caco-2 monolayers; format: cell-based, human; conditions: Caco-2 monolayers treated for 90 min
# Description: as §1
# PP1 = PP1 (Homo sapiens, UniProt P62140); test: Binding assay of biotinylated peptides or MYPT1 1-299 to immobilised His-tagged PP1
# Chain of PP1 (P62140 whole entry, the tested form may be a part): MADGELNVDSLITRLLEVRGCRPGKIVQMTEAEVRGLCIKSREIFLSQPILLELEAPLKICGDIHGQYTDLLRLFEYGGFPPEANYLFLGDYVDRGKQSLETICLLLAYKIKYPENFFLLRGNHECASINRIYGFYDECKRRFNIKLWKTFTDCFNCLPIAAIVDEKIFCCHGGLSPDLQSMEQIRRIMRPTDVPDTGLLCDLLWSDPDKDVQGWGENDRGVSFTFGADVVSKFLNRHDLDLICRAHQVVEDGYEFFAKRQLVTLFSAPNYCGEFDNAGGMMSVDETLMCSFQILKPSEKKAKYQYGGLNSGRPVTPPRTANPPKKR
# Description: (§2) His-tagged PP1 diluted in PBS-T was incubated in nickel coated wells for 1 hour and washed three times with PBS-T. Wells were incubated with increasing concentrations of biotinylated PIP peptides or amino acids 1-299 of MYPT1. Wells were washed again three times with PBS-T and incubated with streptavidin conjugated to Alexa Fluor 488 for 1 hour. Wells were washed as previously and the plate was read for fluorescence (Ex:480 nm, Em: 510 nm).
# MYPT1 binding to PP1 = test: MYPT1/PP1 binding assay in presence of increasing PIP peptide concentrations; conditions: read-out: KI for inhibition of MYPT1 binding to PP1
# Description: as §2
# The binding assay with MYPT1 was repeated in the presence of increasing concentrations of PIP peptides to determine the competition between MYPT1 and the peptides.
# Caco-2 monolayers [3] = test: TEER of Caco-2 monolayers after apical PIP peptide; format: cell-based, human; conditions: 5 mM peptide for 180 min, then washout, 90 min recovery
Molecule,TEER % of initial baseline at time of washout (Caco-2 monolayers [1]),Effect on TEER compared to control (FIG. 1) (Caco-2 monolayers [1]),ratio of pMLC to MLC compared to untreated control [2],occludin level % of control (occludin) [%],Kd (PP1) [µM],Ki (MYPT1 binding to PP1) [µM],TEER % of baseline 90 min after washout (Caco-2 monolayers [3]) [%],TEER reduced to % of baseline (Caco-2 monolayers [1]) [%],"Kd (PP1; derived from binding curves, read-out: KD for binding to PP1) [µM]","Kd (PP1; same assay, read-out: KD for binding to PP1) [µM]"
"CC(C)[C@@H](NC(=O)[C@@H](CCCCN)NC(=O)[C@@H](Cc1ccccc1)NC(=O)[C@@H](CCCNC(=N)N)NC(=O)[C@H](N)CCCNC(=N)N)C(=O)N[C@H](CCCCN)C(=O)N[C@@H](C(=O)N[C@H](CCCCN)C(=O)N[C@H](CCCCN)C(=O)N[C@H](CCCNC(=N)N)C(=O)N[C@H](CCCCN)C(N)=O)[C@H](C)O [PIP250, H-rrfkvktkkrk-NH2, reference compound] (H-[dR][dR][dF][dK][dV][dK][dT][dK][dK][dR][dK]-NH2)",~ 50% and 49%,significantly different from control,significantly increased,65.8,610,155,54,–,–,–
"CC(C)[C@@H](NC(=O)[C@@H](CCCCN)NC(=O)[C@@H](C)NC(=O)[C@@H](CCCNC(=N)N)NC(=O)[C@H](N)CCCNC(=N)N)C(=O)N[C@H](CCCCN)C(=O)N[C@@H](C(=O)N[C@H](CCCCN)C(=O)N[C@H](CCCCN)C(=O)N[C@H](CCCNC(=N)N)C(=O)N[C@H](CCCCN)C(N)=O)[C@H](C)O [PIP251, H-rrakvktkkrk-NH2] (H-[dR][dR][dA][dK][dV][dK][dT][dK][dK][dR][dK]-NH2)",58%,significantly different from control,"increased the ratio of pMLC to MLC, however to a lesser extent than the parent PIP250",84.1,1280,–,94,62.7,–,–
"C[C@H](O)[C@@H](NC(=O)[C@@H](CCCCN)NC(=O)[C@@H](C)NC(=O)[C@@H](CCCCN)NC(=O)[C@@H](Cc1ccccc1)NC(=O)[C@@H](CCCNC(=N)N)NC(=O)[C@H](N)CCCNC(=N)N)C(=O)N[C@H](CCCCN)C(=O)N[C@H](CCCCN)C(=O)N[C@H](CCCNC(=N)N)C(=O)N[C@H](CCCCN)C(N)=O [PIP252, H-rrfkaktkkrk-NH2] (H-[dR][dR][dF][dK][dA][dK][dT][dK][dK][dR][dK]-NH2)",55%,significantly different from control,"increased the ratio of pMLC to MLC, however to a lesser extent than the parent PIP250",61.4,724,–,70,66,–,–
"CC(C)[C@@H](NC(=O)[C@@H](CCCCN)NC(=O)[C@@H](CC(=O)O)NC(=O)[C@@H](CCCNC(=N)N)NC(=O)[C@H](N)CCCNC(=N)N)C(=O)N[C@H](CCCCN)C(=O)N[C@@H](C(=O)N[C@H](CCCCN)C(=O)N[C@H](CCCCN)C(=O)N[C@H](CCCNC(=N)N)C(=O)N[C@H](CCCCN)C(N)=O)[C@H](C)O [PIP253, H-rrdkvktkkrk-NH2] (H-[dR][dR][dD][dK][dV][dK][dT][dK][dK][dR][dK]-NH2)",–,not significant,did not significantly increase,–,–,–,–,88,–,–
"C[C@H](O)[C@@H](NC(=O)[C@@H](CCCCN)NC(=O)[C@@H](CC(=O)O)NC(=O)[C@@H](CCCCN)NC(=O)[C@@H](Cc1ccccc1)NC(=O)[C@@H](CCCNC(=N)N)NC(=O)[C@H](N)CCCNC(=N)N)C(=O)N[C@H](CCCCN)C(=O)N[C@H](CCCCN)C(=O)N[C@H](CCCNC(=N)N)C(=O)N[C@H](CCCCN)C(N)=O [PIP254, H-rrfkdktkkrk-NH2] (H-[dR][dR][dF][dK][dD][dK][dT][dK][dK][dR][dK]-NH2)",–,not significant,did not significantly increase,–,–,–,–,85,–,–
"MYPT11-299: amino acids 1-299 of MYPT1 (protein, UniProt O14974 1-299, looked up, fragment) MKMADAKQKRNEQLKRWIGSETDLEPPVVKRQKTKVKFDDGAVFLAACSSGDTDEVLKLLHRGADINYANVDGLTALHQACIDDNVDMVKFLVENGANINQPDNEGWIPLHAAASCGYLDIAEFLIGQGAHVGAVNSEGDTPLDIAEEEAMEELLQNEVNRQGVDIEAARKEEERIMLRDARQWLNSGHINDVRHAKSGGTALHVAAAKGYTEVLKLLIQAGYDVNIKDYDGWTPLHAAAHWGKEEACRILVDNLCDMEMVNKVGQTAFDVADEDILGYLEELQKKQNLLHSEKRDKKS",–,–,–,–,–,–,–,–,0.05,0.049
